Measurements from paper PMC8161536, “Structure-tuned membrane active Ir-complexed oligoarginine overcomes cancer cell drug resistance and triggers immune responses in mice” (Chemical Science, 2020).
Each block holds one compound with its values, some of them ahead of it.

Key:
Format in all cases: cell-based
[1] = system: A549/Taxol; experiment: MTT cytotoxicity, paclitaxel-resistant A549/Taxol; conditions: read-out: Antiproliferative activity (IC50) A549/Taxol
Experimental: mm × 2.1 mm column. (Waters Corp., USA) The gradient mobile phase consisted of acetonitrile (A) and H2O (B) both containing
0.1% trifluoroacetic acid. A typical 15 min sample run consisted of 2 min of 20% solvent A and 80% solvent B followed by an
increment of solvent A up to 23% for the remaining 2 min. Then the proportion of solvent A was increased to 45% in the
following 8 min and decreased to 20% in the last 3 min. The analytes were monitored by a photo diode array (PDA) detector
set at 220 nm and 254 nm and the flow rate was set to 0.3 mL min-1. The separated metallopeptides were collected to
lyophilized and quantified by ICP-MASS, then for MTT assay.
Circular dichroism assay of Ir-peptides
peptides were lyophilized and quantified by ICP-MASS. The Ir-peptides, isomers, mixture of two isomers were diluted to same
concentration for circular dichroism test. (Chirascan-plus, Applied photophysics)
Water and octanol (1:1, v/v) were saturated for 24 h at room temperature and separated as aqueous phase and oil phase. Ir- […]
the standard curves by fluorescence spectrophotometer, Ex Slit:5.0 nm, Em Slit:5.0 nm, 650 V. Then the aqueous phase’s
fluorescence intensities in samples containing both oil and aqueous phases were scanned, the concentration in aqueous phase
of each Ir-peptide was calculated by standard curve, the Ir-peptide’s initial concentration in aqueous phase minus 24 hour’s […]

[2] = system: HeLa cells; conditions: 24 h
Experimental: (Waters Corp., USA) The gradient mobile phase consisted of acetonitrile (A) and H2O (B) both containing […] A typical 15 min sample run consisted of 2 min of 20% solvent A and 80% solvent B followed by an increment of solvent A up to 23% for the remaining 2 min. Then the proportion of solvent A was increased to 45% in the following 8 min and decreased to 20% in the last 3 min. The analytes were monitored by a photo diode array (PDA) detector set at 220 nm and 254 nm and the flow rate was set to 0.3 mL min-1. The separated metallopeptides were collected to lyophilized and quantified by ICP-MASS, then for MTT assay. Circular dichroism assay of Ir-peptides […] The collected Ir- peptides were lyophilized and quantified by ICP-MASS. The Ir-peptides, isomers, mixture of two isomers were diluted to same concentration for circular dichroism test. (Chirascan-plus, Applied photophysics) LogP assay Water and octanol (1:1, v/v) were saturated for 24 h at room temperature and separated as aqueous phase and oil phase. Ir- […] Samples were stirred for 24 h at room […] the standard curves by fluorescence spectrophotometer, Ex Slit:5.0 nm, Em Slit:5.0 nm, 650 V. Then the aqueous phase's fluorescence intensities in samples containing both oil and aqueous phases were scanned, the concentration in aqueous phase of each Ir-peptide was calculated by standard curve, the Ir-peptide's initial concentration in aqueous phase minus 24 hour's concentration in aqueous phase to obtain the 24 hour's concentration in oil phase, logP=log(c oil/caqueous). Cell culture […] cells were incubated in RPMI 1640 medium with 10% fetal bovine serum, 37 °C, 5%CO2. […] Pharmacology Department, College of Pharmaceutical Sciences, Soochow University. […] obtained from Institute of Hematology and Blood Diseases Hospital, Chinese Academy of Medical Sciences & Peking Union Medical College. Induction of cisplatin resistant A549/DDP cells […] entering the logarithmic growth period. Then the medium was replaced by DMEM medium containing 10% fetal bovine serum and 0.125 μM cisplatin. The cells were incubated with cisplatin for 24 h and the medium was removed and no cisplatin DMEM […] The induction followed this […] The concentration of cisplatin was twice as much as before in each induction. Then the cells were incubated with DMEM containing 10% fetal bovine serum and 4 μM cisplatin for two months and medium containing cisplatin was replaced by no-cisplatin medium two weeks before experiment. Cytotoxicity HeLa cells were cultured in 96-well microplates, 8*10^3 cells per well overnight. […] CCK-8 of 20 μL was added in each well and incubated for 4 h, then the absorbance at 450 nm of each well was obtained by microplate spectrophotometer to calculate the cell viability. […] The absorbance […]

[3] = system: A549/DDP; experiment: MTT cytotoxicity, cisplatin-resistant A549/DDP; conditions: Ir-cR8 24 h, cisplatin 48 h, unit inferred, test concentrations in μM, read-out: Antiproliferative activity (IC50) A549/DDP
Experimental: (Waters Corp., USA) The gradient mobile phase consisted of acetonitrile (A) and H2O (B) both containing […] A typical 15 min sample run consisted of 2 min of 20% solvent A and 80% solvent B followed by an increment of solvent A up to 23% for the remaining 2 min. Then the proportion of solvent A was increased to 45% in the following 8 min and decreased to 20% in the last 3 min. The analytes were monitored by a photo diode array (PDA) detector set at 220 nm and 254 nm and the flow rate was set to 0.3 mL min-1. The separated metallopeptides were collected to lyophilized and quantified by ICP-MASS, then for MTT assay. Circular dichroism assay of Ir-peptides […] The collected Ir- peptides were lyophilized and quantified by ICP-MASS. The Ir-peptides, isomers, mixture of two isomers were diluted to same concentration for circular dichroism test. (Chirascan-plus, Applied photophysics) LogP assay Water and octanol (1:1, v/v) were saturated for 24 h at room temperature and separated as aqueous phase and oil phase. Ir- […] […] CCK-8 of 20 μL was added in each well and incubated for 4 h, then the absorbance at 450 nm of each well was obtained by microplate spectrophotometer to calculate the cell viability. […] The absorbance […]

[4] = system: HL60; experiment: CCK-8 cytotoxicity, HL60; conditions: Homo sapiens, HL-60; read-out: Antiproliferative activity (IC50) HL60
[5] = system: HL60/ADR; experiment: CCK-8 cytotoxicity, doxorubicin-resistant HL60/ADR; conditions: Homo sapiens, read-out: Antiproliferative activity (IC50) HL60/ADR
[6] = system: HL60/Ara-C; experiment: CCK-8 cytotoxicity, cytarabine-resistant HL60/Ara-C; conditions: Homo sapiens, HL-60; read-out: Antiproliferative activity (IC50) HL60/Ara-C

Compound: CC(=O)O[C@H]1C(=O)[C@@]2(C)[C@H]([C@H](OC(=O)c3ccccc3)[C@]3(O)C[C@H](OC(=O)[C@H](O)[C@@H](NC(=O)c4ccccc4)c4ccccc4)C(C)=C1C3(C)C)[C@]1(OC(C)=O)CO[C@@H]1C[C@@H]2O [Paclitaxel, paclitaxel]
IC50 [1]: 25.8 ± 0.5 µM

Compound: N.N.[Cl][Pt][Cl] [Cisplatin, cisplatin]
IC50 [3]: > 128 µM

Compound: COc1cccc2c1C(=O)c1c(O)c3c(c(O)c1C2=O)C[C@@](O)(C(=O)CO)C[C@@H]3O[C@H]1C[C@H](N)[C@H](O)[C@H](C)O1 [Doxorubicin, doxorubicin]
IC50 [4]: 130 ± 60 nM | IC50 [5]: 8.3 ± 0.2 µM

Compound: Nc1ccn([C@@H]2O[C@H](CO)[C@@H](O)[C@@H]2O)c(=O)n1 [Cytarabine, cytarabine]
IC50 [4]: 70 ± 3 nM | IC50 [6]: > 128 µM

More lines, now with the values ahead:

IC50 [2]: > 100 µM
Compound: Ac-HRRRH-NH2 [cR3]

IC50 [2]: > 100 µM
Compound: Ac-HRRRRH-NH2 [cR4]

IC50 [2]: > 100 µM
Compound: Ac-HHRRR-NH2 [aR3]

IC50 [2]: > 100 µM
Compound: Ac-HHRRRR-NH2 [aR4]
